Assay results as given in paper PMC6049614 (Chemical Communications (Cambridge, England), 2018).
Where a SMILES comes first, the peptide text is derived from it. Bridges are numbered along the chain shown (N, C = ends). [ ]: non-standard residue; d: D form. The star is where a group is joined. X1 = O=C(O)CN1CCN(CC(=O)O)CCN(Cc2ccc(CC(=O)*)cc2)CC1; Mpa = O=C(O)CCS

What was measured:
human OTR = molecular target: T1, human OTR (Homo sapiens, UniProt P30559); test: Scintillation proximity assay, displacement of [3H]OT from human OTR; format: binding
T1 construct: expressed in transfected cells
T1 sequence (P30559 1-389): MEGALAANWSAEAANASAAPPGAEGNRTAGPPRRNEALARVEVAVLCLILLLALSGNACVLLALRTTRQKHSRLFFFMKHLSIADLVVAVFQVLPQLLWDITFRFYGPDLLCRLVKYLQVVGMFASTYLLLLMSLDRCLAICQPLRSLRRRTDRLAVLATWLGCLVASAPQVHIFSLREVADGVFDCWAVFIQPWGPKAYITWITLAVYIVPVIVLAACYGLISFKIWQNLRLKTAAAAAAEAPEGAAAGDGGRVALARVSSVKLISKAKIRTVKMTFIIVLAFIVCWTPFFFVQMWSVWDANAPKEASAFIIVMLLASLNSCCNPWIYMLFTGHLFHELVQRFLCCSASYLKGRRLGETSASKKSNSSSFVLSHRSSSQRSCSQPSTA
From the text: (§1) OT analogues were screened in scintillation proximity assays that displace [^3H]OT or [^3H]AVP from the corresponding receptors. […]
(§2) All RCYs reported are decay corrected to the time of 18F delivery. The protocols for performing
(§3) receptor radioligand binding and potency studies on transfected cells to determine affinity

in vivo = conditions: rat
Method: To investigate the plausibility of i.n. administration for OT-like therapies, given the similar structure and hydrophilic profile between AlF-NODA-dLVT and OT, in vivo tissue distribution of [^18F]AlF-NODA-dLVT was determined following i.n. or i.v. administration. […]. Here, it is anticipated that both routes show independent kinetic and metabolic profiles and the extended apparent availability of OT following i.n. administration supports a longer timeframe for this study.[27],[28] Distribution was determined through gamma counting of radioactivity in isolated tissue. A large portion underwent excretion via kidneys (i.v. 4.6 ± 0.4%ID per g; i.n. 1.31 ± 0.7%ID per g) and urine (i.v. 2.5 ± 1.2%ID per g; i.n. 7.7 ± 2.2%ID per g), as expected from the hydrophilic character of the tracer, similar to previous results found with radiolabelled OT given i.v. (Fig. 4A).[29]
Supplementary Figure 5: Pharmacokinetic data acquired from three individual rats showing plasma clearance of AlF-NODA-dLVT over time. Rats received a dose of AlF-NODA-dLVT by tail vein injection (0.08 mg/kg), and blood plasma samples were taken at the specified time point for quantitative analysis by mass spectrometry. […]
Supplementary Figure 6: Transaxial nanoPET scan showing distribution over time of [18F]AlF-NODA-dLVT. Tracer was administered either by i.v. bolus (top) or intranasally (bottom) in rat. […]

[1] = molecular target: T2, human vasopressin receptor V2 (Homo sapiens, UniProt P30518); test: Scintillation proximity assay, displacement of [3H]AVP from human V2 receptor; format: binding
T2 construct: expressed in transfected cells
T2 sequence (P30518 whole entry): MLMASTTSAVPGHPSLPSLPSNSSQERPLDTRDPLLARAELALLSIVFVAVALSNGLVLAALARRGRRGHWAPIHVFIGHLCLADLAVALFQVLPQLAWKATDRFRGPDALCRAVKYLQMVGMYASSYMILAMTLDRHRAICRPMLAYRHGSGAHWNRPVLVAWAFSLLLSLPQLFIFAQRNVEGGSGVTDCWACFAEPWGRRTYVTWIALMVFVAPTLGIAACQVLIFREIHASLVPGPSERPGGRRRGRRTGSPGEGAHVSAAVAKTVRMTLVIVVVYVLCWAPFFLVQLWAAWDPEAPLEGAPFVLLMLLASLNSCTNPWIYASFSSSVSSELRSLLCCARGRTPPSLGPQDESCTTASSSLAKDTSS
From the text: as §1, §2, §3

[2] = molecular target: T3, human vasopressin receptor V1b (Homo sapiens, UniProt P47901); test: Scintillation proximity assay, displacement of [3H]AVP from human V1b receptor; format: binding
T3 construct: expressed in transfected cells
T3 sequence (P47901 1-424): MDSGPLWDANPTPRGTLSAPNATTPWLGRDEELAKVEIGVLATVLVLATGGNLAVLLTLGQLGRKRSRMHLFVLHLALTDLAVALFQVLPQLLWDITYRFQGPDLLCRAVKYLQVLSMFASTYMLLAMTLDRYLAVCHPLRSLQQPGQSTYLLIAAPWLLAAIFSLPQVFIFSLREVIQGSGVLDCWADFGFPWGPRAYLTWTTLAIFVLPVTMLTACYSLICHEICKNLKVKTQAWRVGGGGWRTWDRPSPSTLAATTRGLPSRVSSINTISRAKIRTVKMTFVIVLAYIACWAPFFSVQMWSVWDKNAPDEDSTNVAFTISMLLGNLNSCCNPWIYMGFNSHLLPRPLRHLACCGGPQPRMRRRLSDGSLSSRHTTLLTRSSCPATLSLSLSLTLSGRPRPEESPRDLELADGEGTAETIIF
From the text: OT analogues were screened in scintillation proximity assays that displace [^3H]OT or [^3H]AVP from the corresponding receptors. All peptides screened, including in a reduced state, preferentially bound human OTR with nanomolar affinity (Table 1). In line with previous studies, conjugation of a large group to position 8 afforded analogues with increased selectivity and improved affinity towards OTR[15] (approximately 60-fold for AlF-NODA-dLVT, and 7-fold for dLVT; Table 1 and ESI, ^† Fig. S1). […]. […]
tracer, a probe for nose-to-brain oxytocin uptake in vivo
Rhiannon Beard1; Nisha Singh2,3; Christophe Grundschober4; Antony D. Gee2 and Edward W. […]
a.1Department of Chemistry, Imperial College London, Exhibition Road, London, SW7 2AZ, UK; 2Division of Imaging Sciences, King’s College London, 4th Floor, Lambeth Wing, St Thomas’ Hospital, SE1, 7EH, London, UK; 3Centre for Neuroimaging Sciences, IoPPN, KCL, De Crespigny Park, London, SE5 8AF, UK; and 4 Roche Pharma Research and Early Development, Discovery Neuroscience, Roche Innovation Center Basel, F. Hoffmann-La Roche Ltd, Grenzacherstrasse 124, 4070 Basel, Switzerland […]
All RCYs reported are decay corrected to the time of 18F delivery. The protocols for performing receptor radioligand binding and potency studies on transfected cells to determine affinity constants have been reported elsewhere. 1 […]

human V1a receptors = molecular target: T4, human V1a receptors (Homo sapiens, UniProt P37288); test: Scintillation proximity assay, displacement of [3H]AVP from human V1a receptor; format: binding
T4 construct: expressed in transfected cells
T4 sequence (P37288 whole entry): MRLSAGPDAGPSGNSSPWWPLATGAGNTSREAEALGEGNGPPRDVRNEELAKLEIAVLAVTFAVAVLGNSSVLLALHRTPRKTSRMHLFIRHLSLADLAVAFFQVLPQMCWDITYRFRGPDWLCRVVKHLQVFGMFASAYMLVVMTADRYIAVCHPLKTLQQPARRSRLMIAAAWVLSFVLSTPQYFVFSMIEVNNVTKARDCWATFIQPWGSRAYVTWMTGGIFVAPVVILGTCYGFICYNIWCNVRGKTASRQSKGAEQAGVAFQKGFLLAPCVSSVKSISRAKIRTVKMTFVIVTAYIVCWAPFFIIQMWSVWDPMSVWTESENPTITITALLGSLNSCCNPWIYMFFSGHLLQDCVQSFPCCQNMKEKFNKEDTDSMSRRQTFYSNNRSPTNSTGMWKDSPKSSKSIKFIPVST
From the text: as §1, §2, §3

selectivity towards OTR (human OTR; OTR over V1a, from Ki values of Table 1): approximately 60 fold | Ki (human OTR; human OTR): 2.6 ± 1.7 nM | half-life (in vivo; Wistar, iv, 0.08 mg/kg): 14 min | increase in half-life compared to OT (in vivo): approximately 5 fold | Ki [1]: > 6 µM | Ki [2]: > 6 µM | Ki (human V1a receptors): 157 ± 26 nM
Structure (SMILES): CC[C@H](C)[C@@H]1NC(=O)[C@H](Cc2ccc(O)cc2)NC(=O)CCSSC[C@@H](C(=O)N2CCC[C@H]2C(=O)N[C@@H](CCCCNC(=O)Cc2ccc(CN3CCN(CC(=O)O)CCN(CC(=O)O)CC3)cc2)C(=O)NCC(N)=O)NC(=O)[C@H](CC(N)=O)NC(=O)[C@H](CCC(N)=O)NC1=O [AlF-NODA-dLVTc] ([Mpa]YIQNCPK(X1)G-NH2; disulfide 1-6)
